Assay results as given in patent US20240382498A1, “NOVEL INHIBITOR OF HYPE-MEDIATED AMPYLATION” (Purdue Research Foundation, priority 2023, published 2024).

Legend:
Format in all cases: biochemical
Details in all cases: 10 μM compound
[1] = molecular target: T1, E234G HYPE AMPylation of T229A BiP (Homo sapiens, UniProt Q9BVA6, E234G); experiment: Radioactive in-gel T229A BiP AMPylation assay with E234G HYPE and α-32P-ATP
T1 construct: Δ102 (aa 103-458) HYPE constructs (WT, E234G, and E234G/H363A); His6-SUMO (cleaved yes); made in house; host or cells: E. coli BL21-DE3-RILP
T1 sequence (Q9BVA6 103-458 E234G): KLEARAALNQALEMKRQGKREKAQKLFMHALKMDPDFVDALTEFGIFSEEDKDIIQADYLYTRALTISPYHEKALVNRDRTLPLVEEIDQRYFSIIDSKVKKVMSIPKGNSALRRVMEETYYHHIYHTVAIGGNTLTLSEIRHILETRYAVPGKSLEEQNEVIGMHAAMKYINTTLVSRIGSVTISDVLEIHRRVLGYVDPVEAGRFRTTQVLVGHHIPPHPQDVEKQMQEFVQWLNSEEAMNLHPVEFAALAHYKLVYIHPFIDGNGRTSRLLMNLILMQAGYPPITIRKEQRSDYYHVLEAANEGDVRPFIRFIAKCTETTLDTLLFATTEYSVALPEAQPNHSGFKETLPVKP
Experimental: (§1) 1 μM of HYPE (final concentration) and (where specified) 5 μM of T229A BiP (final concentration) were preincubated with 10 μM DMSO-dissolved compound (final concentration) or equivalent volume of 100% DMSO at room temperature for 10 min in HTS Buffer. Reactions were run for 10 min at 30° C. and began with the addition of 0.01 μCi/μL α-32P-ATP (final concentration). All reactions were performed according to our previously described protocol for in vitro radioactive AMPylation assays19. Where specified, 5 μM of T229A BiP (final concentration) was added to reactions before the addition of compound.

E234G HYPE = molecular target: T2, E234G HYPE (Homo sapiens, UniProt Q9BVA6, E234G); experiment: Radioactive in-gel autoAMPylation assay with E234G HYPE and α-32P-ATP
T2 construct: Δ102 (aa 103-458) HYPE constructs (WT, E234G, and E234G/H363A); His6-SUMO (cleaved yes); made in house; host or cells: E. coli BL21-DE3-RILP
T2 sequence (Q9BVA6 103-458 E234G): T1 sequence (Q9BVA6 103-458 E234G)
Experimental: as §1

[2] = molecular target: T1, E234G HYPE AMPylation of T229A BiP; experiment: Fluorescence in-gel T229A BiP AMPylation assay with E234G HYPE and Fl-ATP
Experimental: 1 μM of WT HYPE (final concentration) was preincubated with 10 μM DMSO-dissolved compound (final concentration) or equivalent volume of 100% DMSO at room temperature for 10 min. Reactions were run for 20 hr at 30° C. in the dark and began with the addition of 1 μM Fl-ATP (final concentration). Alternatively, E234G HYPE AMPylation reactions were run at 10 min due to its hyperactivity. All other parameters were held constant. All reactions were performed HTS Buffer (50 mM HEPES, 1 mM MgCl2, 0.1% Triton X-100, pH 7.50). All reactions were quenched with 4×SDS loading dye, boiled for 5 min at 95° C., and samples were run on 12% SDS-PAGE gels. Gels were imaged on a Typhoon 9500 FLA imager (General Electric) for fluorescence at 473 nm. Imaged gels were then stained with Coomassie Brilliant Blue, destained, and imaged for protein concentration. Where specified, 5 μM of T229A BiP (final concentration) was added to reactions before the addition of compound.

- inhibition of E234G HYPE autoAMPylation in gel (E234G HYPE): bioactivity of I2.10 is mirrored
- inhibition of T229A BiP AMPylation in gel [2]: confirm the inhibitory properties
SMILES: c1cn(-c2ccc(-c3nnc(-c4ccoc4)o3)cn2)cn1 [Compound I2.10]
- inhibition of T229A BiP AMPylation in gel [1]: inhibitory efficacy against BiP AMPylation was reproducible
